Test results as given in US4954490A, “11 β-substituted progesterone analogs” (Research Triangle Institute, priority 1988, dated 1990).
“Also recorded” adds a separate entry of the source.

Columns and labels:
progesterone receptor = molecular target: T1, progesterone receptor (Oryctolagus cuniculus, UniProt P06186); assay: Relative binding affinity to progesterone receptor in uterine cytosol (displacement of tritium-labeled progesterone); parameters: species or system rabbit (estrogen-primed immature female); details: for P-RBA/G-RBA: ratio of RBA values for progesterone receptor to glucocorticoid receptor; for Progestin RBA: relative to progesterone (=100), rabbit uterine cytosol
T1 construct: in the cytosol obtained from estrogen-primedimmature rabbit uterus; from tissue; host or cells: uterine cytosol of estrogen-primed immature female rabbits
T1 sequence (P06186 1-930): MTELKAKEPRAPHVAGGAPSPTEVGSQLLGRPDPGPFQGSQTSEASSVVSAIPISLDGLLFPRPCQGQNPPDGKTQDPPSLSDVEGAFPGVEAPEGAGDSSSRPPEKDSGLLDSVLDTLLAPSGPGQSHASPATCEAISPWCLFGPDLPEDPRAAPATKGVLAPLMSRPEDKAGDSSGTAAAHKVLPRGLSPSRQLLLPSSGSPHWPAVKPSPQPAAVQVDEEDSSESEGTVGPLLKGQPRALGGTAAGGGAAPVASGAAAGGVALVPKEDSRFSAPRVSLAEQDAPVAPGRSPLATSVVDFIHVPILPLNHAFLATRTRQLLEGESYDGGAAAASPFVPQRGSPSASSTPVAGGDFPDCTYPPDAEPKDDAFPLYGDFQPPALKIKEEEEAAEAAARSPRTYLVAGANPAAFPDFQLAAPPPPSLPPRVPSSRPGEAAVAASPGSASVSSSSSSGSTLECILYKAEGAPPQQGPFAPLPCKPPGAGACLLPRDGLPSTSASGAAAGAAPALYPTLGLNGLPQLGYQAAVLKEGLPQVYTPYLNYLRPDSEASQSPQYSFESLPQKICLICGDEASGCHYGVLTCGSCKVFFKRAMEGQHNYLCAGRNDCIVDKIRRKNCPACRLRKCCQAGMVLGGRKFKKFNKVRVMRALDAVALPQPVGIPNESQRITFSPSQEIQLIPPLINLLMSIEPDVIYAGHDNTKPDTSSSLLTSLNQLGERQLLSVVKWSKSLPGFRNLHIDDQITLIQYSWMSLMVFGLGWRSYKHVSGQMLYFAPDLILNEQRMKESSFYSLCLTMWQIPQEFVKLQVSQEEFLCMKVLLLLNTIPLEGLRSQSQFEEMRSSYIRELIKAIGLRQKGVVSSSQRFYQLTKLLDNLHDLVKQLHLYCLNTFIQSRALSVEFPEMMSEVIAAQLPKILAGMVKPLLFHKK
Protocol: (§1) The in vitro activity of the subject compounds was determined by measuring the binding affinities (RBA) of these compounds relative to progesterone for the progesterone receptor in the cytosol obtained from estrogen-primedimmature rabbit uterus and by measuring the RBA relative to dexamethasone for the glucocorticoid receptor from thymus of adrenalectomized rats. These assays were carried out by the procedures of J. R. Reel et al., Fertility and Sterility, 31, 552 (1979) (progesterone) and G. P. Chrousos et al., Endocrinology, 107, 472 (1980) (glucocorticoid).
^a Relative ability to displace tritiumlabeled progesterone from the
receptor in uterine cytosol from estrogenprimed immature female rabbits a
compared with progesterone (=100).

glucocorticoid receptor = molecular target: T2, glucocorticoid receptor (Rattus norvegicus, UniProt P06536); assay: Relative binding affinity to glucocorticoid receptor of thymus (displacement of tritium-labeled dexamethasone); parameters: species or system rat (adrenalectomized); details: relative to dexamethasone (=100)
T2 construct: glucocorticoid receptor from thymus of adrenalectomized rats; from tissue; host or cells: thymus of adrenalectomized rats
T2 sequence (P06536 1-795): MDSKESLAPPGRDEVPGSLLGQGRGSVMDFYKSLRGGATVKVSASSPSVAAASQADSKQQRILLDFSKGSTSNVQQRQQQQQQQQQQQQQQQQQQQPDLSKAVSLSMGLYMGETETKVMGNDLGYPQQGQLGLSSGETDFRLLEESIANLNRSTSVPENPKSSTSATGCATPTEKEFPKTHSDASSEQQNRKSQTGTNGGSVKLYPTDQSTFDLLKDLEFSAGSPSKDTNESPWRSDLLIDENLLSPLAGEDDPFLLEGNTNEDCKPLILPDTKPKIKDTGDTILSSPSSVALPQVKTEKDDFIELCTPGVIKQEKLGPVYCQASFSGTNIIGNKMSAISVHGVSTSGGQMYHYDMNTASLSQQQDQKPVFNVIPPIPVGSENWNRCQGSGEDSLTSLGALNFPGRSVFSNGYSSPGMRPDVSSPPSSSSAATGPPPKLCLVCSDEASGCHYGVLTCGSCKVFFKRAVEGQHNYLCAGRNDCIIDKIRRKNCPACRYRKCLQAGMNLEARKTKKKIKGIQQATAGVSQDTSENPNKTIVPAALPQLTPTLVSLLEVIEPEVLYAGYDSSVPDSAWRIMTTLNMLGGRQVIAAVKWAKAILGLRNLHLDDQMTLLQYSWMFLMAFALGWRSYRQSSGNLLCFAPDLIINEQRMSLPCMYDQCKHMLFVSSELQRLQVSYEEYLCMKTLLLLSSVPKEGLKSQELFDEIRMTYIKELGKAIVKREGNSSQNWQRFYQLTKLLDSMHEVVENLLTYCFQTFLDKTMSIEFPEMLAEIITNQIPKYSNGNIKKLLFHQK
Protocol: as §1
^b Relative ability to displace tritiumlabeled dexamethasone from the
receptor of the thymus of adrenalectomized rats as compared to […]

[1] = test system: endometrial response due to subcutaneous administration of progesterone; assay: Anti-McGinty intrauterine antiprogestational test; type: in vivo, estrogen-primed immature female rabbits; details: for ED90 (actual dose) / ED50 / ED90 (calculated): intrauterine; for ED90 (actual dose): actual dose giving ≥ 90% inhibition; for ED50 / ED90 (calculated): from % Inhib = a + b · ln dose
Protocol: The antiprogestational activity of the compounds was studied after both intrauterine and oral administration. In each case the compound was tested for its ability to inhibit the endometrial response due to subcutaneous administration of progesterone to estrogen-primed immature female rabbits. The methodology used for the intrauterine test has been described by D. A. McGinty et al. See Endocrinology, 24, 829 (1939). For oral administration of test compounds, the method used was analogous to that of Clauberg. See Clauberg, Zentr. Gynakol., 54, 2757 (1930) as modified by McPhail J. Physiol. (London), 83, 145 (1935). Each active compound was characterized by a dose-related ability to block the progestational effect of simultaneously administered progesterone. When the percent inhibition was plotted versus the log of the dose, linear relationships were obtained. Linear regression analysis permitted calculation of the ED50 and ED90 values (the doses required for 50% and 90% inhibition of the progesterone effect, respectively). The actual dose which gave 90% or more inhibition is also given, although this value is probably less accurate than the calculated values which are based on the dose-response line. […] Since the intrauterine administration bypasses most of the drug-metabolizing systems of the body, especially the liver, intrinsic activity is expected to correlate reasonably well with binding activity to the receptor, according to currently held hypotheses regarding receptor binding.

[2] = test system: endometrial response due to subcutaneous administration of progesterone; assay: Oral antiprogestational activity (Anti-Clauberg); type: in vivo, estrogen-primed immature female rabbits; details: for % Inhibition: based on change in McPhail Index; for McPhail Index: scale 0-4; for Wt of Uterus: ± SD
Protocol: The antiprogestational activity of the compounds was studied after both intrauterine and oral administration. In each case the compound was tested for its ability to inhibit the endometrial response due to subcutaneous administration of progesterone to estrogen-primed immature female rabbits. The methodology used for the intrauterine test has been described by D. A. McGinty et al. See Endocrinology, 24, 829 (1939). For oral administration of test compounds, the method used was analogous to that of Clauberg. See Clauberg, Zentr. Gynakol., 54, 2757 (1930) as modified by McPhail J. Physiol. (London), 83, 145 (1935).

[3] = total oral dose 1.0 mg, total SC progesterone 0.8 mg, N=6
[4] = total oral dose 5.0 mg, total SC progesterone 0.8 mg, N=6
[5] = total oral dose 10.0 mg, total SC progesterone 0.8 mg, N=5
[6] = progesterone alone, total SC dose 0.8 mg, no oral compound, N=6

Structure (SMILES) | P-RBA/G-RBA (progesterone receptor) | Progestin RBA (progesterone receptor) | Glucocort. RBA (glucocorticoid receptor) | ED90 (actual dose) [1] | ED50 [1] | ED90 (calculated) [1] | also measured
CC(=O)O[C@]1(C(C)=O)CC[C@H]2[C@@H]3CCC4=CC(=O)CCC4=C3[C@@H](c3ccc(N(C)C)cc3)C[C@@]21C [Compound 8a, 17α-acetoxy-11β-(4-N,N-dimethylaminophenyl)-19-norpregna-4,9-diene-3,20-dione] | 0.24 | 47 | 198 | 2.0 µg | 0.41 µg | 1.2 µg | 
CC(=O)O[C@]1(C(C)=O)CC[C@H]2[C@@H]3C[C@H](C)C4=CC(=O)CCC4=C3[C@@H](c3ccc(N(C)C)cc3)C[C@@]21C [Compound 8b, 6α-methyl-17α-acetoxy-11β-(4-N,N-dimethylaminophenyl)-19-norpregna-4,9-diene-3,20-dione] | 0.18 | 43 | 242 | 2.0 µg | 0.54 µg | 1.9 µg | % Inhibition [2, 3]: 12.7 ± 3.0%; % Inhibition [2, 4]: 51.6 ± 12.2%; % Inhibition [2, 5]: 67.2 ± 6.1%; McPhail Index [2, 3]: 3.46 ± 0.12; McPhail Index [2, 4]: 1.92 ± 0.48; McPhail Index [2, 5]: 1.30 ± 0.24; Wt of Uterus [2, 3]: 3.26 ± 0.34 g; Wt of Uterus [2, 4]: 2.14 ± 0.22 g; Wt of Uterus [2, 5]: 2.24 ± 0.27 g
CC(=O)C1=CC[C@H]2[C@@H]3CCC4=CC(=O)CCC4=C3[C@@H](c3ccc(N(C)C)cc3)C[C@]12C [Compound 23, 11β-(4-N,N-Dimethylaminophenyl)-19-norpregna-4,9,16-triene-3,20-dione] |  | 8 |  | 1.0 µg | 0.26 µg | 0.81 µg | binding to the progesterone receptor (in words) (progesterone receptor): binds relatively weakly to the progesterone receptor; RBA as fraction of the value of the 17α-acetoxy compounds (progesterone receptor; compared with the 17α-acetoxy compounds): less than one-fifth; antiprogestational activity in vivo (in words) ([1]; rabbit, in vivo, listed as Δ-16 compound): even more potent activity; also recorded: exhibits strong antiprogestational activity
CC[C@@H]1C[C@H]2[C@@H]3C[C@@H](C)C4=CC(=O)CCC4=C3[C@@H](c3ccc(N(C)C)cc3)C[C@]2(C)[C@H]1C(C)=O [H, Et, β-CH3, 68-methyl-16α-ethyl-118-(4-N,N-dimethylaminophenyl)-19-norpregna-4,9-diene-3,20-dione] | 0.45 | 48 | 106 |  |  |  | 
CC(=O)O[C@]1(C(C)=O)CC[C@H]2[C@@H]3C[C@@H](C)C4=CC(=O)CCC4=C3[C@@H](c3ccc(N(C)C)cc3)C[C@@]21C [OAc, H, β-CH3] |  | 15 |  |  |  |  | 
CC(=O)[C@@]1(O)CC[C@H]2[C@@H]3CCC4=CC(=O)CCC4=C3[C@@H](c3ccc(N(C)C)cc3)C[C@@]21C [OH, H, H] | 0.37 | 15 | 41 |  |  |  | 
CC(=O)[C@@]1(O)CC[C@H]2[C@@H]3C[C@H](C)C4=CC(=O)CCC4=C3[C@@H](c3ccc(N(C)C)cc3)C[C@@]21C [OH, H, α-CH3] | 0.26 | 46 | 175 |  |  |  | 
CC(=O)[C@H]1CC[C@H]2[C@@H]3CCC4=CC(=O)CC[C@]4(C)[C@H]3CC[C@]12C [Progesterone, progesterone] |  |  |  |  |  |  | Wt of Uterus [2, 6]: 3.06 ± 0.45 g; McPhail Index [2, 6]: 3.96 ± 0.04
